System: Phytophthora infestans, strain resistant to phenylalanine
Conditions: listed phosphite salt(s) alone at 750 ppm equivalent phosphorous acid, potato plants, scale 100 to 0

For O=[PH]([O-])[O-].[Cu+2] [CuHPO3, copper (II) salt of phosphorous acid], the “Activity (y)” value was 12.

— patent publication US20090081174A1 (priority 2005, published 2009)
